Reference: patent US7049312B1, “Benzothiazinone and benzoxazinone compounds” (Abbott GmbH & Co. KG, priority 1999, dated 2006)

First: CC(=O)OCCCCn1cc(C=C2Sc3ccccc3NC2=O)c2cccnc21 [Example 131, 2-{[1-(4-Acetoxybutyl)-7-azaindol-3-yl]methylene}-2H-1,4-benzothiazine-3(4H)-one]
Second: S=C1Nc2ccccc2SC1=Cc1c[nH]c2ncccc12 [Example 269, 2-[(7-azaindol-3-yl)methylene]-2H-1,4-benzothiazine-3(4H)-thione]
The melting point of the first is lower: 158 to 160 °C for the first, 287 to 290 °C for the second.

First: S=C1Nc2ccccc2SC1=Cc1c[nH]c2ccccc12 [Example 268, 2-[(Indol-3-yl)methylene]-2H-1,4-benzothiazine-3(4H)-thione]
Second: S=C1Nc2ccccc2OC1=Cc1c[nH]c2ccccc12 [Example 272, 2-[(indol-3-yl)methylene]-2H-1,4-benzoxazin-3(4H)-thione]
The melting point of the first is lower: 253 to 256 °C for the first, 275 to 277 °C for the second.

First: S=C1Nc2ccccc2SC1=Cc1ccc[nH]1 [Example 270, 2-[(pyrrol-2-yl)methylene]-2H-1,4-benzothiazine-3(4H)-thione]
Second: ON=C1Nc2ccccc2SC1=Cc1ccc[nH]1 [Example 273, 3-Hydroxyimino-2-[(pyrrol-2-yl)methylene]-2H-1,4-benzothiazine]
The melting point of the first is higher: 205 to 206 °C for the first, 204 to 205 °C for the second.

First: S=C1Nc2ccccc2OC1=Cc1ccc[nH]1 [Example 271, 2-[(Pyrrol-2-yl)methylene]-2H-1,4-benzoxazin-3 (4H)-thione]
Second: ON=C1Nc2ccccc2OC1=Cc1ccc[nH]1 [Example 278, 3-Hydroxyimino-2-[(pyrrol-2-yl)methylene]-2H-1,4-benzoxazine]
The melting point of the first is higher: 241 to 243 °C for the first, 192 to 194 °C for the second.

Compared with CC(=O)ON=C1Nc2ccccc2SC1=Cc1ccc[nH]1 [Example 276, 3-Acetyloxyimino-2-[(pyrrol-2-yl)methylene]-2H-1,4-benzothiazine], O=C(ON=C1Nc2ccccc2SC1=Cc1ccc[nH]1)c1ccccc1 [Example 277, 3-Benzoyloxyimino-2-[(pyrrol-2-yl)methylene]-2H-1,4-benzothiazine] is higher in melting point: 182 to 185 °C for the first, 188 to 189 °C for the second.

First: O=C1Nc2ccccc2S(=O)(=O)C1=Cc1c[nH]c2ccccc12 [Example 280, 1,1-Dioxo-2-[(indol-3-yl)methylene]-2H-1,4-benzothiazin-3(4H)-one]
Second: COc1ccc(NC=C2C(=O)Nc3ccccc3S2(=O)=O)cc1 [Example 285, 1,1 Dioxo-2-[(4-methoxyphenylamino)methylene]-2H-1,4-benzothiazin-3(4H)-one]
The melting point of the first is higher: 318 to 320 °C for the first, 250 to 251 °C for the second.

Compound O=C1Nc2ncccc2OC1=Cc1ccccc1 [Example 297, 2-(Phenylmethylene)-2H-pyrido[3,2-b][1,4]oxazin-3(4H)-one] has a melting point of 223 to 225 °C.
